Values of other authors in patent US20030216431A1, “Ophthalmic pharmaceutical compositions and methods for treating ocular inflammation” (priority 2002, published 2003).

Settings: for daily dosage causing serious retinopathy: systemic use in patients, nearly all instances

time to onset of definite retinopathy (dosage slightly greater than 250 mg chloroquine diphosphate per day) | daily dosage causing serious retinopathy | duration of intake without clinically evident retinopathy (not exceeding 250 mg diphosphate or 200 mg sulfate per day) | Structure (SMILES)
one to three | more than 250 mg per day | – | CCN(CC)CCCC(C)Nc1ccnc2cc(Cl)ccc12 (stereo not shown) [chloroquine diphosphate, Quinoline, 7-chloro-4-((4-(diethylamino)-1-methylbutyl)amino)-, diphosphate]
– | > 200 mg per day | – | CCN(CC)CCCC(C)Nc1ccnc2cc(Cl)ccc12.O=S(=O)(O)O (stereo not shown) [chloroquine sulfate, Quinoline, 7-chloro-4-((4-(diethylamino)-1-methylbutyl)amino)-, sulfate]
– | – | nine | CCN(CC)CCCC(C)Nc1ccnc2cc(Cl)ccc12 (stereo not shown) [chloroquine, Chloroquine]
